According to patent US20100152434A1, “Protein Kinase-binding Nucleosides and Associated Methods” (priority 2007, published 2010):

How the values were obtained:
ABL1 = ABL1 (Homo sapiens, UniProt P00519); assay: SignalChem radioisotope protein kinase assay; format: biochemical; details: 5 μl of 100 μM stock solution in 25 μl
Excerpt: (§1) The various protein kinase targets to be employed in the kinase profiling assay were cloned, expressed and purified in-house at SignalChem (Richmond, BC, Canada) using proprietary methods. Quality control testing is routinely performed on each of the SignalChem targets to ensure compliance to acceptable standards. Protein substrates employed in the target profiling process were synthesized internally. ^33P-ATP was purchased from PerkinElmer. All other materials were of standard grade. Compound 10 (FIG. 4) was supplied to SignalChem in a powder form. It was reconstituted in DMSO to form a stock solution which was then diluted with 10% DMSO to form a working stock solution (100 μM) that was then profiled against the various protein kinase targets. The assay conditions for the various protein kinase targets were optimized to yield acceptable enzymatic activity. In addition, the assays were optimized to give high signal-to-noise ratio.
(§2) SignalChem uses a radioisotope assay format for profiling evaluation of protein kinase targets. Protein kinase assays were performed in triplicate at ambient temperature for 20-40 min (depending on the target) in a final volume of 25 μl according to the following assay reaction recipe: • Component 1: 5 μl of diluted active protein kinase target (˜10-40 nM final protein concentration in the assay) • Component 2: 5 μl of stock solution of substrate (1-5 μg of peptide or protein substrate) • Component 3: 5 μl of kinase assay buffer or protein kinase activator in kinase assay buffer • Component 4: 5 μl of Compound 10 (100 μM stock solution) or 10% DMSO • Component 5: 5 μl of 33P-ATP (25 μM stock solution, 0.8 μCi)
(§3) The assay was initiated by the addition of ^33P-ATP and the reaction mixture incubated at ambient temperature for 20-40 minutes, depending on the protein kinase target. After the incubation period, the assay was terminated by spotting 10 μl of the reaction mixture onto a Millipore Multiscreen plate. The Millipore Multiscreen plate was washed 3 times for approximately 15 minutes each in a 1% phosphoric acid solution. The radioactivity on the P81 plate was counted in the presence of scintillation fluid in a Trilux scintillation counter. Blank control, which included all the assay components except the addition of the appropriate substrate (replaced with equal volume of assay dilution buffer), was set up for each protein kinase target. The corrected activity for each protein kinase target was determined by removing the blank control value.

AKT1 = AKT1 (Homo sapiens, UniProt P31749); assay: SignalChem radioisotope protein kinase assay; format: biochemical; details: 5 μl of 100 μM stock solution in 25 μl
AKT1, sequence (P31749 whole entry, species assumed): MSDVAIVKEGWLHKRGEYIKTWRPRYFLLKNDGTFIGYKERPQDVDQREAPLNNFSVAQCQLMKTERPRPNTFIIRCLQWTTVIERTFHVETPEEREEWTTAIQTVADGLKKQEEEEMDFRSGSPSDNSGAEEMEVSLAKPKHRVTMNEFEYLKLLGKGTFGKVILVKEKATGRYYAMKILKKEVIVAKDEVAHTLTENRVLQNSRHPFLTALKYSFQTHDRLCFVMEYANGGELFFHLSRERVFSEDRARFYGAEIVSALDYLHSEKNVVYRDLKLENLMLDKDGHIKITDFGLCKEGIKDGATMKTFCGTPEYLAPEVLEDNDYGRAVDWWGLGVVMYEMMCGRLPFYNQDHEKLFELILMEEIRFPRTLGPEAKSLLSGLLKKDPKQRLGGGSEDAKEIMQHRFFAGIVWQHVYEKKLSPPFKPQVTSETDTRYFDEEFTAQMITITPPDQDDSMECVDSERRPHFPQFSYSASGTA
Excerpt: as §1, §2, §3

AURORA A = AURORA A (Homo sapiens, UniProt O14965); assay: SignalChem radioisotope protein kinase assay; format: biochemical; details: 5 μl of 100 μM stock solution in 25 μl
Excerpt: as §1, §2, §3

ERK1 = ERK1 (Homo sapiens, UniProt P27361); assay: SignalChem radioisotope protein kinase assay; format: biochemical; details: 5 μl of 100 μM stock solution in 25 μl
Excerpt: as §1, §2, §3

FLT3 = FLT3 (Homo sapiens, UniProt P36888); assay: SignalChem radioisotope protein kinase assay; format: biochemical; details: 5 μl of 100 μM stock solution in 25 μl
Excerpt: as §1, §2, §3

KDR = KDR (Homo sapiens, UniProt P35968); assay: SignalChem radioisotope protein kinase assay; format: biochemical; details: 5 μl of 100 μM stock solution in 25 μl
Excerpt: as §1, §2, §3

p38α = p38α (Homo sapiens, UniProt Q16539); assay: SignalChem radioisotope protein kinase assay; format: biochemical; details: 5 μl of 100 μM stock solution in 25 μl
p38α, sequence (Q16539 whole entry): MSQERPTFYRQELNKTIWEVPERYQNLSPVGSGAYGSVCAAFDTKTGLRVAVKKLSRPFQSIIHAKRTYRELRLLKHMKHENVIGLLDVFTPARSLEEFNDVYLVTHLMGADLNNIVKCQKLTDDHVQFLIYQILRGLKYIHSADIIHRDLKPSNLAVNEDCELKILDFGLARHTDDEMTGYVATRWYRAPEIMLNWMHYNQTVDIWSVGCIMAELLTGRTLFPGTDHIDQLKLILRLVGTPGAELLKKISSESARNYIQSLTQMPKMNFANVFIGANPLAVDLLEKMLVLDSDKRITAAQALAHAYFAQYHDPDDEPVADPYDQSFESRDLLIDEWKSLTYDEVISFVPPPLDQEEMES
Excerpt: as §1, §2, §3

p38δ = p38δ (Homo sapiens, UniProt O15264); assay: SignalChem radioisotope protein kinase assay; format: biochemical; details: 5 μl of 100 μM stock solution in 25 μl
Excerpt: as §1, §2, §3

CSNK2A2 = CSNK2A2 (Homo sapiens, UniProt P19784); assay: Ambit kinase phage display ATP-binding-site ligand binding assay; details: read-out: % Inhibition of binding to ATP-binding-site ligand
Excerpt: (§4) This assay is based on ligand-affinity/protein kinase phage display and was employed essentially as described by Fabian et. al [Nature Biotech. […] In this assay, protein kinases are cloned into T7 bacteriophage which express the kinase fusion proteins on the phage capsid. T7 kinase-tagged phage are then screened for binding to ATP-binding-site ligands that have been immobilized on a solid support. Phage are screened for binding to the anchored ligands both in the presence of test compound and in its absence (control). Elution of the bound phage by free ligand (ATP-binding site ligand that is not immobilized on a solid support) followed by determination of the phage titre provides a reliable measure of the ability of test compounds to block binding of target kinases to resin-bound ATP-binding-site ligands.
(§5) T7 kinase-tagged phage strains were grown in parallel in microtiter plates in a proprietary bacterial host derived from E. Coli strain BL21. E. Coli were grown to a log phase, infected with T7 kinase-tagged phage, and incubated while shaking at 32° C. until bacterial lysis (approx. 90 min). Lysates were centrifuged (6,000 g) and filtered (0.2 μm). […] The phage titre of the eluates was measured by quantitative PCR or by plaque assays. […]

PAK3 = PAK3 (Homo sapiens, UniProt O75914); assay: as above; details: read-out: % Inhibition of binding to ATP-binding-site ligand
Excerpt: as §4, §5

MARK3 = MARK3 (Homo sapiens, UniProt P27448); assay: as above; details: read-out: % Inhibition of binding to ATP-binding-site ligand
Excerpt: (§6) In this assay, protein kinases are cloned into T7 bacteriophage which express the kinase fusion proteins on the phage capsid. T7 kinase-tagged phage are then screened for binding to ATP-binding-site ligands that have been immobilized on a solid support. Phage are screened for binding to the anchored ligands both in the presence of test compound and in its absence (control). Elution of the bound phage by free ligand (ATP-binding site ligand that is not immobilized on a solid support) followed by determination of the phage titre provides a reliable measure of the ability of test compounds to block binding of target kinases to resin-bound ATP-binding-site ligands.
(§7) T7 kinase-tagged phage strains were grown in parallel in microtiter plates in a proprietary bacterial host derived from E. Coli strain BL21. E. Coli were grown to a log phase, infected with T7 kinase-tagged phage, and incubated while shaking at 32° C. until bacterial lysis (approx. 90 min). Lysates were centrifuged (6,000 g) and filtered (0.2 μm). Small molecule ATP-binding-site-specific ligands were anchored to solid supports via a two step process beginning with biotin conjugation followed by treatment of the biotin/small molecule conjugate with streptavidin-coated magnetic beads. […] The phage titre of the eluates was measured by quantitative PCR or by plaque assays. […]

IKK-α = IKK-α (Homo sapiens, UniProt O15111); assay: as above; details: read-out: % Inhibition of binding to ATP-binding-site ligand
Excerpt: as §6, §7

ALK6 = ALK6 (Homo sapiens, UniProt O00238); assay: as above; details: read-out: % Inhibition of binding to ATP-binding-site ligand
ALK6, sequence (O00238 14-502): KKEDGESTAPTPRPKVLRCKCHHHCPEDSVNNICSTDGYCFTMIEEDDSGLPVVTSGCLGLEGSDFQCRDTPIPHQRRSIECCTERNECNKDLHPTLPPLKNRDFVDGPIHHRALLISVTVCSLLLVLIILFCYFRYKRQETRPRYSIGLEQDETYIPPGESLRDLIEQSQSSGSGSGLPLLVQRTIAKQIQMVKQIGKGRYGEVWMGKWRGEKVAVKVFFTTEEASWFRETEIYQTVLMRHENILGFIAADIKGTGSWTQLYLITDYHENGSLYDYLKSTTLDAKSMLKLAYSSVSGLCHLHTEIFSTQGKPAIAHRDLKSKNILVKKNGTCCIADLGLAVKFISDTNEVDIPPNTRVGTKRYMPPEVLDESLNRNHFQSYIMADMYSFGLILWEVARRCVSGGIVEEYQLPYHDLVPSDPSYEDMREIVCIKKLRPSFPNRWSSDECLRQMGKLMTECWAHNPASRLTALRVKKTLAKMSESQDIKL
Excerpt: as §4, §5

TXK = TXK (Homo sapiens, UniProt P42681); assay: as above; details: read-out: percent inhibition of binding
Excerpt: as §4, §5

MEK6 = MEK6 (Homo sapiens, UniProt P52564); assay: as above; details: read-out: percent inhibition of binding
MEK6, sequence (P52564 whole entry): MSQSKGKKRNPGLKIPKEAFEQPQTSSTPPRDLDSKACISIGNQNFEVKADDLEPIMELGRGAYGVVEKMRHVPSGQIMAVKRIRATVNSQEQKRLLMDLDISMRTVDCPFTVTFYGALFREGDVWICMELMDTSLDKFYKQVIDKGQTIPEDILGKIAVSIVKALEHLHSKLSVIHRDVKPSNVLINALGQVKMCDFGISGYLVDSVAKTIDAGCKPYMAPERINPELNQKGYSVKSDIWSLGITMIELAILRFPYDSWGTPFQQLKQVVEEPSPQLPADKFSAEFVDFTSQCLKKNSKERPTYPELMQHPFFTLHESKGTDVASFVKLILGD
Excerpt: as §4, §5

MAP4K5 = MAP4K5 (Homo sapiens, UniProt Q9Y4K4); assay: as above; details: read-out: percent inhibition of binding
Excerpt: as §4, §5

ABL1(F317) = assay: as above; details: 10 μM
Excerpt: as §6, §7

MLK1 = MLK1 (Homo sapiens, UniProt P80192); assay: as above; details: read-out: percent inhibition of binding
Excerpt: as §6, §7

MINK = MINK (Homo sapiens, UniProt Q8N4C8); assay: as above; details: read-out: percent inhibition of binding
Excerpt: as §4, §5

CSF1R = CSF1R (Homo sapiens, UniProt P07333); assay: as above; details: read-out: percent inhibition of binding
Excerpt: as §4, §5

BMPR2 = BMPR2 (Homo sapiens, UniProt Q13873); assay: as above; details: read-out: percent inhibition of binding
Excerpt: as §4, §5

HCK = HCK (Homo sapiens, UniProt P08631); assay: as above; details: read-out: percent inhibition of binding
HCK, sequence (P08631 whole entry, species assumed): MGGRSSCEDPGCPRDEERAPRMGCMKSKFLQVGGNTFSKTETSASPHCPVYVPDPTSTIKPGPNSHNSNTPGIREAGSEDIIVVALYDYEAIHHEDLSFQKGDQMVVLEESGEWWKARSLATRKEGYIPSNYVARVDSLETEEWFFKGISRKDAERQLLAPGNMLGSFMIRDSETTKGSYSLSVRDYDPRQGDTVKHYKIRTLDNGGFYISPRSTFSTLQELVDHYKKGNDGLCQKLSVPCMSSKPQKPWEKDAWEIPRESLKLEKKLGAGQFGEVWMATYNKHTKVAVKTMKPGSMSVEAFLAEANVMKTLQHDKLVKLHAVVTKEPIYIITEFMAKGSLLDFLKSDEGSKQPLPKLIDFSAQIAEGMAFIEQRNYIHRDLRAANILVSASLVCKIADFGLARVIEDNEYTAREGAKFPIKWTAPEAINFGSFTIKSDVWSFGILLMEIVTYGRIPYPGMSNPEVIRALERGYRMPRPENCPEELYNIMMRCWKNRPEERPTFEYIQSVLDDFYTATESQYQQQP
Excerpt: as §4, §5

MET = MET (Homo sapiens, UniProt P08581); assay: as above; details: read-out: percent inhibition of binding
MET, sequence (P08581 25-1390): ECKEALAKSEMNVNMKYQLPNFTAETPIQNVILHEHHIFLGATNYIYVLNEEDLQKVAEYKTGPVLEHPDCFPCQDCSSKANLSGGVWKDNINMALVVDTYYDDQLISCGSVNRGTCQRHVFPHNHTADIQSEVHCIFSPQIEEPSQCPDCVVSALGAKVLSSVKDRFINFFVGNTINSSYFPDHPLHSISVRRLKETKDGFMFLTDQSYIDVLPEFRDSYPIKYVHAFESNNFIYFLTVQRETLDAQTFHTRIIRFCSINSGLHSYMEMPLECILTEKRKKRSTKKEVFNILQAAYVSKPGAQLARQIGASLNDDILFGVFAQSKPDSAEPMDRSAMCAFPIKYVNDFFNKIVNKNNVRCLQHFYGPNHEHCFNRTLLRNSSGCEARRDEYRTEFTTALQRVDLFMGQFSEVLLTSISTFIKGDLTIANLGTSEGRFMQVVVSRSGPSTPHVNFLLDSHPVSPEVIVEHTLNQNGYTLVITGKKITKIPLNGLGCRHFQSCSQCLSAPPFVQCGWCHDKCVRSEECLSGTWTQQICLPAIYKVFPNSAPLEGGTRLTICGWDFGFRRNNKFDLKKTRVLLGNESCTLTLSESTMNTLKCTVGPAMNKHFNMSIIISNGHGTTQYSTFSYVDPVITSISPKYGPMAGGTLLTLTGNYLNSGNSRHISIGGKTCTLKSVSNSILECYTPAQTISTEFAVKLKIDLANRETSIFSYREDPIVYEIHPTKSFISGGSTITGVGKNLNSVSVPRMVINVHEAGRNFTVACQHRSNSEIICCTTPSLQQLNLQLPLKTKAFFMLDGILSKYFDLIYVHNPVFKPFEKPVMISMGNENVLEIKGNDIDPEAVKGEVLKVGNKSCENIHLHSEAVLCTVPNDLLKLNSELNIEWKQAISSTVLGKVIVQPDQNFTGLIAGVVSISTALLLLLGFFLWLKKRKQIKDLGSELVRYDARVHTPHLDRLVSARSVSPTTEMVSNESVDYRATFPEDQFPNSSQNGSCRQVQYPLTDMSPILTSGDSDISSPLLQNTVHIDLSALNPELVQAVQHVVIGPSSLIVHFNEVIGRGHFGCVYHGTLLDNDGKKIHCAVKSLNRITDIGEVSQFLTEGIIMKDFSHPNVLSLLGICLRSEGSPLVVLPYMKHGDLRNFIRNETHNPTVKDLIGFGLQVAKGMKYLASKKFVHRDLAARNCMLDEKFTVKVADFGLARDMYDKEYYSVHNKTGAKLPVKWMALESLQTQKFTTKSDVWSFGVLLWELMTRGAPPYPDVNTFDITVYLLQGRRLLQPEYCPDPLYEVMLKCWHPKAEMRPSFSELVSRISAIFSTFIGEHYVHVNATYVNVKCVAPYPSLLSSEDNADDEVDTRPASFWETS
Excerpt: as §4, §5

DAPK1 = DAPK1 (Homo sapiens, UniProt P53355); assay: as above; details: read-out: percent inhibition of binding
Excerpt: as §6, §7

CDK5 = CDK5 (Homo sapiens, UniProt Q00535); assay: as above; details: read-out: percent inhibition of binding
CDK5, sequence (Q00535 whole entry): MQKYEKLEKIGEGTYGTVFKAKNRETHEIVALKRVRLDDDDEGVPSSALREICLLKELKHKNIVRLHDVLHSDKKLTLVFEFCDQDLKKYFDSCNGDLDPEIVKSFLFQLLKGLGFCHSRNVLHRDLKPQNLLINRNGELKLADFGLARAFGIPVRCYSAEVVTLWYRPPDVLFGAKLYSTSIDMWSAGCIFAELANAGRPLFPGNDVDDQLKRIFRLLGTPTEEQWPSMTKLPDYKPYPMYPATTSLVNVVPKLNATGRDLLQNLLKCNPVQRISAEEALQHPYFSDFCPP
Excerpt: as §6, §7

ABL1, sequence (P00519 whole entry, species assumed): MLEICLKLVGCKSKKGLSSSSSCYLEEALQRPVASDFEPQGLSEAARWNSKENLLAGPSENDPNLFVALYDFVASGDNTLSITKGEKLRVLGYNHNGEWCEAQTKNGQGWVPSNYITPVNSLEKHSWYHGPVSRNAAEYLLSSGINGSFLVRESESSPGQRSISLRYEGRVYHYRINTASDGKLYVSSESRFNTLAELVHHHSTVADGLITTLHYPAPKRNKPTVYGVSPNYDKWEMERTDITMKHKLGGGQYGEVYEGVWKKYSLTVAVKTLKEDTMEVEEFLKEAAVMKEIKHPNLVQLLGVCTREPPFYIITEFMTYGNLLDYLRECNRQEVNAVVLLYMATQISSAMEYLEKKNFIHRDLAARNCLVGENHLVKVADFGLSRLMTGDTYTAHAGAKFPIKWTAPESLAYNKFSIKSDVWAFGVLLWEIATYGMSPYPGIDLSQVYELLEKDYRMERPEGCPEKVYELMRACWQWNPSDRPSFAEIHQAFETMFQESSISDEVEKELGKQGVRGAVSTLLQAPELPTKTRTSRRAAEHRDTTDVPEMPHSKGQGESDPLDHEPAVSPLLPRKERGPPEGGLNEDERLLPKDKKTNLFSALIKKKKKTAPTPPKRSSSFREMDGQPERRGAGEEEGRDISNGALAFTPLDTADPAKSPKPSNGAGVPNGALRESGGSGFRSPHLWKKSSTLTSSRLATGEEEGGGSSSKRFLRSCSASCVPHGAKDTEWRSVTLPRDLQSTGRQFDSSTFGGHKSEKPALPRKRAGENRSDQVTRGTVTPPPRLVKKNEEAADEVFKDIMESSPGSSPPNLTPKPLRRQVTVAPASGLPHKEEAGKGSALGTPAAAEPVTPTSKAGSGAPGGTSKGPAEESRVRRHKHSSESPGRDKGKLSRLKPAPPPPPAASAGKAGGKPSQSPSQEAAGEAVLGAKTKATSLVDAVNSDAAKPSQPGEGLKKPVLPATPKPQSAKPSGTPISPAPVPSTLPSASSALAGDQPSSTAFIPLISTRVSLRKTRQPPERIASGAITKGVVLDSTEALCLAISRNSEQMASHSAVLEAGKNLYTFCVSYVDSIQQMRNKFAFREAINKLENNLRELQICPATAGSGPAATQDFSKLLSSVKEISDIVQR

Structure (SMILES): CCOC(=O)C[C@@H]1C(O[Si](C)(C)C(C)(C)C)[C@H](n2cnc3c(NC(=O)Nc4ccccc4)ncnc32)O[C@@H]1CNC(=O)NC (stereo partly shown) [Compound 10]
- % Activity Change (ABL1): 0%
- % Activity Change (AKT1): 2%
- % Activity Change (AURORA A): 1%
- % Activity Change (ERK1): 6%
- % Activity Change (FLT3): 11%
- % Activity Change (KDR): 2%
- % Activity Change (p38α): 9%
- % Activity Change (p38δ): 5%
- inhibition at 10 µM (CSNK2A2): 31%
- inhibition at 10 µM (PAK3): 33%
- inhibition at 10 µM (MARK3): 34%
- inhibition at 10 µM (IKK-α): 37%
- inhibition at 10 µM (ALK6): 47%
- inhibition at 10 µM (TXK): 20 to 29%
- inhibition at 10 µM (MEK6): 20 to 29%
- inhibition at 10 µM (MAP4K5): 20 to 29%
- percent inhibition of binding (ABL1(F317)): 20-29%
- inhibition at 10 µM (MLK1): 20 to 29%
- inhibition at 10 µM (MINK): 20 to 29%
- inhibition at 10 µM (CSF1R): 20 to 29%
- inhibition at 10 µM (BMPR2): 20 to 29%
- inhibition at 10 µM (HCK): 20 to 29%
- inhibition at 10 µM (MET): 20 to 29%
- inhibition at 10 µM (DAPK1): 20 to 29%
- inhibition at 10 µM (CDK5): 20 to 29%
